Data as given in PubChem BioAssay AID328 (DTP/NCI, 2004).
Where “and” joins values, the source holds several entries; their conditions need not be identical. Equal entries are not always repeated. Inconclusive results and toxic doses are left out. The calls were made as follows: active = survival T/C of 150% or more; inactive = T/C below 125% in these data. Positions of bridges follow the written chain, without caps; N, C: chain ends. Non-standard residues stand in square brackets, D forms with d. Residues, ends and D or L forms follow the SMILES beside them. Chains are numbered I, II in the order given. *: point of attachment. Quinoxaline2carbonyl = O=C(c1cnc2ccccc2n1)*; NMeV = CN[CH](C(=O)O)C(C)C; NMeC = CN[CH](CS)C(=O)O

System: BDF1 mice, P388 leukemia ip, median survival T/C
Experiment: NCI In Vivo Anticancer Drug Screen. Data for tumor model P388 Leukemia (intraperitoneal) in B6D2F1 (BDF1) mice
Conditions: endpoint: median survival time, higher = longer survival
How it was run: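 Survival ratio, drug arm over vehicle arm, in mice with a transplanted tumour.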

[1] = dose: 100.0 mg/kg/injection, schedule: Q04DX003 (ip), vehicle: saline
[2] = dose: 200.0 mg/kg/injection, schedule: Q04DX003 (ip), vehicle: saline
[3] = dose: 50.0 mg/kg/injection, schedule: Q01DX009 (ip), vehicle: saline with Tween-80
[4] = dose: 100.0 mg/kg/injection, schedule: Q01DX009 (ip), vehicle: saline with Tween-80
[5] = dose: 12.5 mg/kg/injection, schedule: Q01DX009 (ip), vehicle: saline
[6] = dose: 25.0 mg/kg/injection, schedule: Q01DX009 (ip), vehicle: saline
[7] = dose: 6.25 mg/kg/injection, schedule: Q01DX009 (ip), vehicle: Klucel (hydroxypropylcellulose) (HPC)
[8] = dose: 12.5 mg/kg/injection, schedule: Q01DX009 (ip), vehicle: Klucel (hydroxypropylcellulose) (HPC)
[9] = dose: 25.0 mg/kg/injection, schedule: Q01DX009 (ip), vehicle: Klucel (hydroxypropylcellulose) (HPC)
[10] = dose: 50.0 mg/kg/injection, schedule: Q01DX009 (ip), vehicle: Klucel (hydroxypropylcellulose) (HPC)
[11] = dose: 50.0 mg/kg/injection, schedule: Q01DX005 (ip), vehicle: saline with Tween-80
[12] = dose: 100.0 mg/kg/injection, schedule: Q01DX005 (ip), vehicle: saline with Tween-80
[13] = dose: 200.0 mg/kg/injection, schedule: Q01DX005 (ip), vehicle: saline with Tween-80
[14] = dose: 100.0 mg/kg/injection, schedule: Q04DX003 (ip), vehicle: Klucel (hydroxypropylcellulose) (HPC)
[15] = dose: 50.0 mg/kg/injection, schedule: Q01DX009 (ip), vehicle: saline
[16] = dose: 200.0 mg/kg/injection, schedule: Q01DX009 (ip), vehicle: saline with Tween-80
[17] = dose: 100.0 mg/kg/injection, schedule: Q04DX003 (ip), vehicle: saline with Tween-80
[18] = dose: 200.0 mg/kg/injection, schedule: Q04DX003 (ip), vehicle: saline with Tween-80
[19] = dose: 100.0 mg/kg/injection, schedule: Q01DX009 (ip), vehicle: saline

Measured: T/C

CCOCCC(=O)O
inactive: [1] 104 % of control | [2] 109 % of control | dose: 400.0 mg/kg/injection, schedule: Q04DX003 (ip), vehicle: saline 90 % of control

CCCN(CCC)CC(O)c1cc2cc(C(F)(F)F)cc(C(F)(F)F)c2c2ccccc12 (centres undefined)
inactive: [3] 107 % of control | [4] 114 % of control

OCC(I)C(CO)[n+]1ccccc1 (centres undefined)
inactive: [5] 107 % of control | dose: 12.5 mg/kg/injection, schedule: Q04DX003 (ip), vehicle: saline 88 % of control | [6] 107 % of control | dose: 25.0 mg/kg/injection, schedule: Q04DX003 (ip), vehicle: saline 103 % of control | dose: 50.0 mg/kg/injection, schedule: Q04DX003 (ip), vehicle: saline 100 % of control

O=[N+]([O-])C1(Cl)CCCCC1
inactive: [7] 112 % of control | [8] 108 % of control | [9] 102 % of control and 105 % of control

ClC1CC[N-]CC1.ClC1CC[N-]CC1.[Cl][Pt+2]([Cl])([Cl])[Cl]
inactive: [10] 115 % of control
active: [8] 182 % of control | [9] 221 % of control

COC(=O)C(CC(=O)c1ccccc1)NCc1ccccc1 (centres undefined)
inactive: dose: 100.0 mg/kg/injection, schedule: Q01DX001 (ip), vehicle: saline with Tween-80 100 % of control | dose: 200.0 mg/kg/injection, schedule: Q01DX001 (ip), vehicle: saline with Tween-80 95 % of control | dose: 400.0 mg/kg/injection, schedule: Q01DX001 (ip), vehicle: saline with Tween-80 100 % of control

CCOC(=O)CSc1cc(C)c2c(N)c(C(=O)OCC)sc2n1
inactive: [11] 88 % of control | [12] 91 % of control | [13] 89 % of control

O=NN(CCCl)C(=O)Nc1cccc(O)c1
88 % of control and 215 % of control: [10]
active: dose: 22.0 mg/kg/injection, schedule: Q04DX003 (ip), vehicle: Klucel (hydroxypropylcellulose) (HPC) 190 % of control | [9] 215 % of control | dose: 33.0 mg/kg/injection, schedule: Q04DX003 (ip), vehicle: Klucel (hydroxypropylcellulose) (HPC) 186 % of control | dose: 50.0 mg/kg/injection, schedule: Q04DX003 (ip), vehicle: Klucel (hydroxypropylcellulose) (HPC) 186 % of control | dose: 66.0 mg/kg/injection, schedule: Q04DX003 (ip), vehicle: saline 222 % of control | dose: 75.0 mg/kg/injection, schedule: Q01DX009 (ip), vehicle: Klucel (hydroxypropylcellulose) (HPC) 158 % of control | [14] 222 % of control | [1] 272 % of control
inactive: dose: 35.0 mg/kg/injection, schedule: Q01DX009 (ip), vehicle: Klucel (hydroxypropylcellulose) (HPC) 100 % of control | dose: 100.0 mg/kg/injection, schedule: Q01DX009 (ip), vehicle: Klucel (hydroxypropylcellulose) (HPC) 105 % of control

C[N+]1(C2CCC3CCC2C3O)CCOCC1 (centres undefined)
inactive: [5] 91 % of control and 92 % of control | [6] 100 % of control | [15] 91 % of control and 92 % of control | [1] 100 % of control and 90 % of control | [2] 90 % of control

NNC(=O)C(O)C(O)C(=O)NN (centres undefined)
inactive: dose: 60.0 mg/kg/injection, schedule: Q01DX009 (ip), vehicle: saline 96 % of control | dose: 120.0 mg/kg/injection, schedule: Q01DX009 (ip), vehicle: saline 93 % of control

CCOC(=O)CC(=O)c1ccc(C)cc1
inactive: [4] 90 % of control | [16] 90 % of control

C[C@H](CCC[C@H](C)OS(=O)(=O)c1ccccc1)OS(=O)(=O)c1ccccc1
inactive: dose: 25.0 mg/kg/injection, schedule: Q01DX009 (ip), vehicle: saline with Tween-80 117 % of control | [3] 99 % of control and 116 % of control
active: [4] 155 % of control | [16] 156 % of control and 180 % of control | dose: 400.0 mg/kg/injection, schedule: Q01DX009 (ip), vehicle: saline with Tween-80 182 % of control

Cc1cc(N=NC(N)=S)c2ccccc2c1O
inactive: [4] 103 % of control | [16] 100 % of control

COc1ccc(C2C=CC(c3ccccc3)C(c3ccccc3)C2[N+](=O)[O-])cc1OC (centres undefined)
inactive: [17] 100 % of control | [18] 100 % of control | dose: 400.0 mg/kg/injection, schedule: Q04DX003 (ip), vehicle: saline with Tween-80 90 % of control

Cc1c(CNc2ccc(C(=O)NC(CC(=O)O)C(=O)O)cc2)ccc2nc(N)nc(N)c12 (centres undefined)
inactive: dose: 6.25 mg/kg/injection, schedule: Q01DX009 (ip), vehicle: saline 100 % of control | [5] 90 % of control | dose: 37.5 mg/kg/injection, schedule: Q04DX003 (ip), vehicle: saline with Tween-80 104 % of control
active: dose: 16.5 mg/kg/injection, schedule: Q04DX003 (ip), vehicle: saline with Tween-80 254 % of control | dose: 25.0 mg/kg/injection, schedule: Q04DX003 (ip), vehicle: saline with Tween-80 272 % of control

CCCN(CCC)CCCC#N
inactive: dose: 50.0 mg/kg/injection, schedule: Q04DX003 (ip), vehicle: saline with Tween-80 100 % of control | [17] 100 % of control | [18] 100 % of control

N#CCCNCCC#N
inactive: [15] 91 % of control | [19] 108 % of control | [1] 105 % of control | dose: 200.0 mg/kg/injection, schedule: Q01DX009 (ip), vehicle: saline 104 % of control | [2] 105 % of control

CCCCCc1ccc2oc(=O)c3ccc(C)cc3c2c1O
inactive: dose: 1.5 mg/kg/injection, schedule: Q01DX009 (ip), vehicle: Klucel (hydroxypropylcellulose) (HPC) 95 % of control | dose: 3.0 mg/kg/injection, schedule: Q01DX009 (ip), vehicle: Klucel (hydroxypropylcellulose) (HPC) 104 % of control | dose: 6.0 mg/kg/injection, schedule: Q01DX009 (ip), vehicle: Klucel (hydroxypropylcellulose) (HPC) 104 % of control | [7] 92 % of control | [14] 100 % of control | dose: 200.0 mg/kg/injection, schedule: Q04DX003 (ip), vehicle: Klucel (hydroxypropylcellulose) (HPC) 100 % of control | dose: 400.0 mg/kg/injection, schedule: Q04DX003 (ip), vehicle: Klucel (hydroxypropylcellulose) (HPC) 95 % of control

CO[C@H]1C[C@H](O[C@H]2CC[C@@]3(C)[C@H](CC[C@@H]4[C@@H]3CC[C@]3(C)[C@@H](C5=CC(=O)OC5)CC[C@]43O)C2)O[C@H](C)[C@H]1O
inactive: dose: 4.3 mg/kg/injection, schedule: Q01DX009 (ip), vehicle: saline with Tween-80 99 % of control | dose: 6.4 mg/kg/injection, schedule: Q01DX009 (ip), vehicle: saline with Tween-80 107 % of control | dose: 9.6 mg/kg/injection, schedule: Q01DX009 (ip), vehicle: saline with Tween-80 107 % of control

CC1NC(=O)C(NC(=O)c2cnc3ccccc3n2)COC(=O)C(C(C)C)N(C)C(=O)C2CSSCC(C(=O)N(C)C(C(C)C)C(=O)OCC(NC(=O)c3cnc4ccccc4n3)C(=O)NC(C)C(=O)N2C)N(C)C1=O (centres undefined) (I: Quinoxaline2carbonyl-SA[NMeC][NMeV] / II: Quinoxaline2carbonyl-SA[NMeC][NMeV]; ester I:1-II:C, I:C-II:1; disulfide I:3-II:3; configuration not given here)
active: dose: 90.0 micrograms/kg/injection, schedule: Q01DX009 (ip), vehicle: saline 200 % of control
inactive: dose: 11.0 micrograms/kg/injection, schedule: Q01DX009 (ip), vehicle: saline 124 % of control | dose: 22.5 micrograms/kg/injection, schedule: Q01DX009 (ip), vehicle: saline 115 % of control | dose: 45.0 micrograms/kg/injection, schedule: Q01DX009 (ip), vehicle: saline 113 % of control

CC(=O)Nc1ccc(OC(=O)Nc2ccc(C)c(NC(=O)Oc3ccc(NC(C)=O)cc3)c2)cc1
inactive: [11] 96 % of control | [12] 102 % of control | [13] 119 % of control

CCCCC(CCC)(CCN)CCCC
inactive: dose: 1.0 mg/kg/injection, schedule: Q01DX009 (ip), vehicle: Klucel (hydroxypropylcellulose) (HPC) 100 % of control | dose: 2.0 mg/kg/injection, schedule: Q01DX009 (ip), vehicle: Klucel (hydroxypropylcellulose) (HPC) 110 % of control | dose: 4.0 mg/kg/injection, schedule: Q01DX009 (ip), vehicle: Klucel (hydroxypropylcellulose) (HPC) 105 % of control | dose: 8.0 mg/kg/injection, schedule: Q01DX009 (ip), vehicle: Klucel (hydroxypropylcellulose) (HPC) 115 % of control

CCOC(=O)CCC#N
inactive: [15] 100 % of control | [19] 116 % of control | dose: 400.0 mg/kg/injection, schedule: Q01DX009 (ip), vehicle: saline 99 % of control
